Measurements published in ChEMBL document CHEMBL2424578, “Synergistic effects of berberines with antibiotics on clinical multi-drug resistant isolates of methicillin-resistant Staphylococcus aureus (MRSA)” (2013).
Values after ≈ are worked out from the molar mass of the structure shown.

Experiments:
Format in all cases: functional
[1] = tested on: Staphylococcus aureus; experiment: Antibacterial activity against SCCmec type 3 genotype-positive and methicillin-resistant Staphylococcus aureus clinical isolates after 24 hrs by chequerboard method in presence of azithromycin
[2] = tested on: Staphylococcus aureus; experiment: Antibacterial activity against SCCmec type 3 genotype-positive and methicillin-resistant Staphylococcus aureus clinical isolates after 24 hrs by chequerboard method in presence of cefazolin
[3] = tested on: Staphylococcus aureus; experiment: Antibacterial activity against SCCmec type 3 genotype-positive and methicillin-resistant Staphylococcus aureus clinical isolates after 24 hrs by broth microdilution method
[4] = tested on: Staphylococcus aureus; experiment: Antibacterial activity against SCCmec type 3 genotype-positive and methicillin-resistant Staphylococcus aureus clinical isolates after 24 hrs by chequerboard method in presence of levofloxacin
[5] = tested on: Staphylococcus aureus; experiment: Antibacterial activity against SCCmec type 3 genotype-positive and methicillin-resistant Staphylococcus aureus clinical isolates after 24 hrs by chequerboard method in presence of ampicillin

SMILES | FICI50 [1] | FICI90 [1] | fractional inhibitory concentration index (FICI) [1] | FICI50 [2] | FICI90 [2] | fractional inhibitory concentration index (FICI) [2] | MBC [3] | MIC [3] | FICI50 [4] | FICI90 [4] | fractional inhibitory concentration index (FICI) [4] | FICI50 [5] | FICI90 [5] | fractional inhibitory concentration index (FICI) [5]
COS(=O)(=O)[O-].COc1ccc2c(c1OC)C[N+]1(C)CCc3cc4c(cc3C1=C2)OCO4 (stereo not drawn) | 0.375 | 0.5 | 0.188 | 2 | 2 | 1.5 | 256 mg/L | 64 mg/L | 0.375 | 0.5 | 0.25 | 2 | 2 | 1.5
CC1(C)S[C@@H]2[C@H](NC(=O)[C@H](N)c3ccccc3)C(=O)N2[C@H]1C(=O)O [AMPICILLIN] |  |  |  |  |  |  | 64 mg/L (≈ 183 µM) |  |  |  |  |  |  | 
CC[C@H]1OC(=O)[C@H](C)[C@@H](O[C@H]2C[C@@](C)(OC)[C@@H](O)[C@H](C)O2)[C@H](C)[C@@H](O[C@@H]2O[C@H](C)C[C@H](N(C)C)[C@H]2O)[C@](C)(O)C[C@@H](C)CN(C)[C@H](C)[C@@H](O)[C@]1(C)O [AZITHROMYCIN] |  |  |  |  |  |  |  | 2000 mg/L (≈ 2670 µM) |  |  |  |  |  | 
COc1ccc2cc3[n+](cc2c1OC)CCc1cc2c(cc1-3)OCO2.[Cl-] [BERBERINE CHLORIDE] | 0.313 | 0.5 | 0.25 | 2 | 2 | 1.5 | 64 mg/L | 32 mg/L | 0.5 | 0.75 | 0.375 | 2 | 2 | 1.5
C[C@H]1COc2c(N3CCN(C)CC3)c(F)cc3c(=O)c(C(=O)O)cn1c23.C[C@H]1COc2c(N3CCN(C)CC3)c(F)cc3c(=O)c(C(=O)O)cn1c23.O [LEVOFLOXACIN] |  |  |  |  |  |  | 8 mg/L | 2 mg/L |  |  |  |  |  | 
CN[C@H](CC(C)C)C(=O)N[C@H]1C(=O)N[C@@H](CC(N)=O)C(=O)N[C@H]2C(=O)N[C@H]3C(=O)N[C@H](C(=O)N[C@H](C(=O)O)c4cc(O)cc(O)c4-c4cc3ccc4O)[C@H](O)c3ccc(c(Cl)c3)Oc3cc2cc(c3O[C@@H]2O[C@H](CO)[C@@H](O)[C@H](O)[C@H]2O[C@H]2C[C@](C)(N)[C@H](O)[C@H](C)O2)Oc2ccc(cc2Cl)[C@H]1O [VANCOMYCIN] |  |  |  |  |  |  | 2 mg/L (≈ 1.38 µM) |  |  |  |  |  |  | 
